Laboratory results as given in US11229623B2 (GlaxoSmithKline Intellectual Property (No.2) Limited, priority 2016, dated 2022).
Structures can show the parent of a compound that is named as a salt.

Target: T1, human TRPV4 (Homo sapiens, UniProt Q9HBA0)
T1 construct: expressed in transfected cells; host or cells: BHK/AC9 cells transduced with BacMam virus
Assay: FLIPR assay for hTRPV4 expressed in BHK cells: inhibition of Agonist Compound-induced calcium signal
Type: cell-based
Details: hTRPV4 in BHK/AC9 cells, FLIPR calcium signal, agonist at EC80; reported as range class; read-out: IC50
Description: FLIPR Assay for hTRPV4 Expressed in BHK Cells:
TRPV4 channel activation results in an influx of divalent and monovalent cations including calcium. The resulting changes in intracellular calcium were monitored using a calcium specific fluorescent dye Fluo-4 (MDS Analytical Technologies). BHK/AC9 cells transduced with BacMam virus expressing the human TRPV4 gene at a MOI of 78 were plated in a 384 well poly-D lysine coated plate (15,000 cells/well in 50 μL culture medium containing DMEM/F12 with 15 mM HEPES, 10% FBS, 1% Penicillin-Streptomycin and 1% L-glutamine). Cells were incubated for 24 hours at 37° C. and 5% CO2. Culture medium was then aspirated using a Tecan plate-washer and replaced with 20 μL/well of dye loading buffer: HBSS, 500 μM Brilliant Black (MDS Analytical Technologies), and 2 μM Fluo-4 AM. Dye loaded plates were then incubated in the dark at room temperature for 1-1.5 hours.

T1 sequence (Q9HBA0 whole entry): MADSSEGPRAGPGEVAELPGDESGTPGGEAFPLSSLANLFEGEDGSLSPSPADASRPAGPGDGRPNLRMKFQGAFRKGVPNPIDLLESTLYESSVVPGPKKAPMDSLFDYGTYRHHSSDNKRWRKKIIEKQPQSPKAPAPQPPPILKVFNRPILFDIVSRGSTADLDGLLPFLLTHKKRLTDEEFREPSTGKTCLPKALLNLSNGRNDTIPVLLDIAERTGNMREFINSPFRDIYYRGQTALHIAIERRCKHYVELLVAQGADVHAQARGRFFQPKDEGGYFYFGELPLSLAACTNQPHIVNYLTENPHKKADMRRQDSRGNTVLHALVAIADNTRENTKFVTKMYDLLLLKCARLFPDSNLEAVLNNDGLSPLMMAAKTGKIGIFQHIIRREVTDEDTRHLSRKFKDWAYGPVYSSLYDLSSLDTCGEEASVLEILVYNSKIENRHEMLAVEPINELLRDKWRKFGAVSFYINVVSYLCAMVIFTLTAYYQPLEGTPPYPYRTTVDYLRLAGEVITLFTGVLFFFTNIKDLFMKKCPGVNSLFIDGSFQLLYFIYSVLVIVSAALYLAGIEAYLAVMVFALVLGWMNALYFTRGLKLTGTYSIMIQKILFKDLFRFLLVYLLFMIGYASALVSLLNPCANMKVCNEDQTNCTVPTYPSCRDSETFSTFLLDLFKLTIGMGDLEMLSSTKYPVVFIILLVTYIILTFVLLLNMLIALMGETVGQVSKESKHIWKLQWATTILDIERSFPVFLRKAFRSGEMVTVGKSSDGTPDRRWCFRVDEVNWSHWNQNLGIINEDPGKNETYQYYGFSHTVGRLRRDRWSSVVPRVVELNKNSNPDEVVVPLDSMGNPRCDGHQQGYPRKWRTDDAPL

IC50 [nM] | SMILES
0.1 to 10 | C[C@@H](O)[C@]1(O)CN(S(=O)(=O)c2ccc(C(F)(F)F)cc2C#N)C[C@@H]1Oc1ccc(C#N)c(F)c1 [Example 193, 4-(((3S,4R)-1-((2-cyano-4-(trifluoromethyl)phenyl)sulfonyl)-4-hydroxy-4-((R)-1-hydroxyethyl)pyrrolidin-3-yl)oxy)-2-fluorobenzonitrile]
0.1 to 10 | CCc1ccc(S(=O)(=O)N2C[C@H](Oc3ccc(C#N)c(F)c3)[C@](O)(CO)C2)c(C#N)c1 [Example 217, 4-(((3S,4R)-1-((2-cyano-4-ethylphenyl)sulfonyl)-4-hydroxy-4-(hydroxymethyl)pyrrolidin-3-yl)oxy)-2-fluorobenzonitrile]
10 to 100 | N#Cc1ccc(O[C@H]2CN(S(=O)(=O)c3ccc(Cl)cn3)C[C@]2(O)CN)cc1F [Example 234, 4-(((3S,4R)-4-(aminomethyl)-1-((5-chloropyridin-2-yl)sulfonyl)-4-hydroxypyrrolidin-3-yl)oxy)-2-fluorobenzonitrile, Hydrochloride]
0.1 to 10 | N#Cc1ccc(O[C@H]2CN(S(=O)(=O)c3ccc(C(F)(F)F)cc3C#N)C[C@@]2(O)CO)c(Cl)c1 [Example 14, 2-(((3R,4S)-4-(2-chloro-4-cyanophenoxy)-3-hydroxy-3-(hydroxymethyl)pyrrolidin-1-yl)sulfonyl)-5-(trifluoromethyl)benzonitrile]
10 to 100 | N#Cc1ccc(O[C@H]2CN(S(=O)(=O)c3ccc(Cl)cc3)C[C@@]2(O)CO)cc1F [Example 101, 4-(((3S,4R)-1-((4-chlorophenyl)sulfonyl)-4-hydroxy-4-(hydroxymethyl)pyrrolidin-3-yl)oxy)-2-fluorobenzonitrile]
10 to 100 | Cn1ncc(Br)c1S(=O)(=O)N1C[C@H](Oc2ccc(C#N)c(F)c2)[C@](O)(CO)C1 [Example 123, 4-(((3S,4R)-1-((4-bromo-1-methyl-1H-pyrazol-5-yl)sulfonyl)-4-hydroxy-4-(hydroxymethyl)pyrrolidin-3-yl)oxy)-2-fluorobenzonitrile]
10 to 100 | N#Cc1ccc(O[C@H]2CN(S(=O)(=O)c3ccccc3C#N)C[C@]2(O)CO)cc1F [Example 137, 4-(((3S,4S)-1-((2-cyanophenyl)sulfonyl)-4-hydroxy-4-(hydroxymethyl)pyrrolidin-3-yl)oxy)-2-fluorobenzonitrile]
10 to 100 | N#Cc1ccc(O[C@H]2CN(S(=O)(=O)c3ccc(Cl)cn3)C[C@@]2(O)CO)c2ccccc12 [Example 57, 4-(((3S,4R)-1-((5-chloropyridin-2-yl)sulfonyl)-4-hydroxy-4-(hydroxymethyl)pyrrolidin-3-yl)oxy)-1-naphthonitrile]
0.1 to 10 | Cc1cc(C#N)ccc1S(=O)(=O)N1C[C@H](Oc2ccc(C#N)c(F)c2)[C@](O)(CO)C1 [Example 80, 4-(((3S,4R)-1-((4-cyano-2-methylphenyl)sulfonyl)-4-hydroxy-4-(hydroxymethyl)pyrrolidin-3-yl)oxy)-2-fluorobenzonitrile]
0.1 to 10 | N#Cc1ccc(O[C@H]2CN(S(=O)(=O)c3ccc(Cl)cc3C#N)C[C@]2(O)CO)cc1F [Example 139, 4-(((3S,4S)-1-((4-chloro-2-cyanophenyl)sulfonyl)-4-hydroxy-4-(hydroxymethyl)pyrrolidin-3-yl)oxy)-2-fluorobenzonitrile]
10 to 100 | N#Cc1ccc(O[C@H]2CN(S(=O)(=O)c3ccccc3Cl)C[C@@]2(O)CO)cc1F [Example 85, 4-(((3S,4R)-1-((2-chlorophenyl)sulfonyl)-4-hydroxy-4-(hydroxymethyl)pyrrolidin-3-yl)oxy)-2-fluorobenzonitrile]
0.1 to 10 | N#Cc1cc(C(F)(F)F)ccc1S(=O)(=O)N1C[C@H](Oc2cc(F)c(C#N)c(F)c2)[C@](O)(CO)C1 [Example 20, 4-(((3S,4R)-1-((2-cyano-4-(trifluoromethyl)phenyl)sulfonyl)-4-hydroxy-4-(hydroxymethyl)pyrrolidin-3-yl)oxy)-2,6-difluorobenzonitrile]
0.1 to 10 | N#Cc1ccc(O[C@H]2CN(S(=O)(=O)c3ccc(I)cc3C#N)C[C@@]2(O)CO)cc1F [Example 114, 4-(((3S,4R)-1-((2-cyano-4-iodophenyl)sulfonyl)-4-hydroxy-4-(hydroxymethyl)pyrrolidin-3-yl)oxy)-2-fluorobenzonitrile]
10 to 100 | N#Cc1ccc(O[C@H]2CN(S(=O)(=O)c3ccc(OC(F)F)cn3)C[C@@]2(O)CN)cc1F [Example 247, 4-(((3S,4S)-4-(aminomethyl)-1-((5-(difluoromethoxy)pyridin-2-yl)sulfonyl)-4-hydroxypyrrolidin-3-yl)oxy)-2-fluorobenzonitrile, 2,2,2-trifluoroacetate]
10 to 100 | C[C@@H](O)[C@]1(O)CN(S(=O)(=O)c2ccc(C(F)F)nc2)C[C@@H]1Oc1ccc(C#N)c(F)c1 [Example 212, 4-(((3S,4R)-1-((6-(difluoromethyl)pyridin-3-yl)sulfonyl)-4-hydroxy-4-((R)-1-hydroxyethyl)pyrrolidin-3-yl)oxy)-2-fluorobenzonitrile]
0.1 to 10 | N#Cc1ccc(O[C@H]2CN(S(=O)(=O)c3cccc(Cl)c3C#N)C[C@@]2(O)CO)cc1F [Example 95, 4-(((3S,4R)-1-((3-chloro-2-cyanophenyl)sulfonyl)-4-hydroxy-4-(hydroxymethyl)pyrrolidin-3-yl)oxy)-2-fluorobenzonitrile]
0.1 to 10 | N#Cc1ccc(S(=O)(=O)N2C[C@H](Oc3cc(F)c(C#N)cc3OCC(F)(F)F)[C@](O)(CO)C2)cc1 [Example 178, 4-(((3S,4R)-1-((4-cyanophenyl)sulfonyl)-4-hydroxy-4-(hydroxymethyl)pyrrolidin-3-yl)oxy)-2-fluoro-5-(2,2,2-trifluoroethoxy) benzonitrile]
10 to 100 | N#Cc1ccc(O[C@H]2CN(S(=O)(=O)c3c(Cl)nc4sccn34)C[C@@]2(O)CO)cc1F [Example 90, 4-(((3S,4R)-1-((6-chloroimidazo[2,1-b]thiazol-5-yl)sulfonyl)-4-hydroxy-4-(hydroxymethyl)pyrrolidin-3-yl)oxy)-2-fluorobenzonitrile]
0.1 to 10 | C[C@@H](O)[C@]1(O)CN(S(=O)(=O)c2ccc(I)cc2)C[C@@H]1Oc1ccc(C#N)c(F)c1 [Example 209, 2-fluoro-4-(((3S,4R)-4-hydroxy-4-((R)-1-hydroxyethyl)-1-((4-iodophenyl)sulfonyl)pyrrolidin-3-yl)oxy)benzonitrile]
10 to 100 | N#Cc1cc(F)ccc1S(=O)(=O)N1C[C@H](Oc2ccc(C(F)(F)F)cc2)[C@@](O)(CO)C1 [Example 149, 5-fluoro-2-(((3S,4S)-3-hydroxy-3-(hydroxymethyl)-4-(4-(trifluoromethyl)phenoxy)pyrrolidin-1-yl)sulfonyl)benzonitrile]

SMILES | IC50 [nM]
CC(C)COc1cc(C#N)c(F)cc1O[C@H]1CN(S(=O)(=O)c2ccc(C(F)(F)F)nc2)C[C@@]1(O)CO [Example 183, 2-fluoro-4-(((3S,4R)-4-hydroxy-4-(hydroxymethyl)-1-((6-(trifluoromethyl)pyridin-3-yl)sulfonyl)pyrrolidin-3-yl)oxy)-5-isobutoxybenzonitrile] | 10 to 100
CC(C)COc1cc(C#N)ccc1O[C@H]1CN(S(=O)(=O)c2ccc(C(F)(F)F)cc2C#N)C[C@@]1(O)CO [Example 170, 2-(((3R,4S)-4-(4-cyano-2-isobutoxyphenoxy)-3-hydroxy-3-(hydroxymethyl)pyrrolidin-1-yl)sulfonyl)-5-(trifluoromethyl)benzonitrile] | 0.1 to 10
